The record followed here is publication PMC10905675, “INX-315, a Selective CDK2 Inhibitor, Induces Cell Cycle Arrest and Senescence in Solid Tumors” (Cancer Discovery, 2023).

Assay [1] relates to palbociclib-resistant MCF7 cells. In words: CellTiter Glo viability assay. The conditions noted are these: Homo sapiens, MCF7, Supp Fig S9B, CDK4/6 inhibitor monotherapy; read-out: IC50. It is filed as cell-based. The protocol:
(§1) An exception to this is MCF7PDRCl5-1 cells which were first cultured for 5 days without palbociclib then plated as described. MCF7PDRCl5-1 cells were treated with either a dose curve of the indicated CDK4/6i or a dose curve of INX-315 + 1 µmol/L of the indicated CDK4/6i. Cell viability was determined using the CellTiter-Glo assay (Promega, G9241) following manufacturer's instructions. Plates were processed on either BioTek Synergy2 multi-mode (Agilent) or ClarioSTAR (BMG Labtech) plate readers. T47D and MCF7 cells were seeded into […] plates using BioTek 406 (Aglient) and treated with a ten-point dose concentration from 10 µmol/L to 0.3 nmol/L of INX-315 for 2× doubling times. Plates were fixed with 4% PFA and stained with Rhodamine-Phalloidin (Bio-Trend, 00027) and DAPI (5 mg/mL, Invitrogen, catalog no. D1306). Plates were imaged using CellInsight CX7 LZR and DAPI-positive cells were counted using Thermo Fisher Scientific HCS Studio Cell Analysis Software.

The subject of assay [2] is parental MCF7 and T47D cells. In words: Cell cycle flow cytometry. It is filed as cell-based. Conditions: abemaciclib 500 nmol/L, 7 days. The protocol:
One hour prior to endpoint, either 10 µmol/L BrdU or EdU was applied to the cells. Cells were stained using the Near-IR Fixable Viability Stain (Invitrogen, L34976) for 20 minutes at room temperature. Cells were fixed and permeabilized using FoxP3/Transcription Factor Staining Buffer Set (eBioscience, 00–5523–00; for BrdU-treated cells) or Click-iT fixative (for EdU-treated cells). DNA was denatured using 2N HCl + 0.5% (v/v) Triton X-100 for 30 minutes. […] Cells were then stained with BrdU antibody (clone 3D4, BioLegend, 364118, RRID:AB_2814318) for 1 hour. The EdU Click-iT reaction was performed using a Click-iT EdU Flow Cytometry Assay Kit (Invitrogen, C10418 or C10425). Prior to acquisition on the BD A3 Symphony or FACSCelesta, DNA was stained using FxCycle Violet ReadyFlow Reagent (BrdU) or FxCycle Far Red nucleic acid stain (Invitrogen, F10348) in combination with Rnase (Sigma R4642) (for EdU-treated cells). A minimum of 10,000 live cell events were recorded for each sample and data was analyzed using Flow Jo (Tree Star, RRID:SCR_008520).

For assay [3], the system named is MMTV-rtTA/tetO-HER2 tumors. In words: Transgenic mammary tumor growth. Type of assay: in vivo, mice. The protocol: (§2) PDX models were performed by Crown Biosciences (OV5398, GA0103, and GA0114) or XenoSTART (ST4316B). Tumor fragments from stock mice were harvested and implanted subcutaneously into the flank of NOD/SCID mice (OV5398, RRID:IMSR_JAX:001303), BALB/c nude mice (GA0103 and GA0114, RRID:IMSR_RJ:BALB-C-NUDE), or athymic nude mice (Crl:NU(NCr)-Foxn1nu, RRID:IMSR_CRL:490) (ST4316B). For CDX models, female athymic nude mice (Crl:NU(NCr)-Foxn1nu, RRID:IMSR_CRL:490) were inoculated with 1 × 10^7 50% Cultrex OVCAR3 cells in the flank. Experiments performed using MMTV-rtTA/tetO-HER2 mice were performed at the Peter MacCallum Cancer Centre. Tumor formation was induced and sustained in female mice with doxycycline as previously described ([33]). Randomization and treatment in all models began when median tumor volume reached a maximum of 300 mm^3.
Mice were treated via oral gavage. INX-315 was prepared weekly in 100% PEG400; abemaciclib was prepared as previously described ([33]) and ribociclib (Selleckchem, S7440) was prepared weekly in 0.5% methyl cellulose. To generate abemaciclib-resistant MMTV-rtTA/tetO-HER2 tumors, mice were treated continuously with abemaciclib at a dose of 75 mg/kg until tumors resumed growth as described in text. […]

The subject of assay [4] is five cell lines with CCNE1 amplification (ovarian cancer). In words: CellTiter Glo viability assay. It is filed as cell-based. Conditions: six days.
Assay [5] has as its system Hs68. In words: CellTiter Glo viability assay. Type of assay: cell-based. The conditions noted are these: benign human fibroblast cell line Hs68. The protocol: as §1
Assay [6] has as its system MKN1. Nature of the assay: CellTiter Glo viability assay. Type of assay: cell-based. The conditions noted are these: 6 days. The protocol: as §1
Assay [7] deals with ST4316B PDX. In words: PDX tumor growth. Type of assay: in vivo, mice. Conditions: monotherapy; ribociclib 50 mg/kg per day. The method, then:
as §2
Mice were treated via oral gavage. INX-315 was prepared weekly in 100% PEG400; abemaciclib was prepared as previously described ([33]) and ribociclib (Selleckchem, S7440) was prepared weekly in 0.5% methyl cellulose. To generate abemaciclib-resistant MMTV-rtTA/tetO-HER2 tumors, mice were treated continuously with abemaciclib at a dose of 75 mg/kg until tumors resumed growth as described in text. At this point and in all other MMTV-rtTA/tetO-HER2 mice experiments, mice were randomized into treatment groups and abemaciclib was administered to indicated groups at a dose of 50 mg/kg. In all MMTV-rtTA/tetO-HER2 mice experiments, INX-315 was administered at a dose of 50 mg/kg twice daily. For PDX model ST4316B, ribociclib was administered at 50 mg/kg per day.

Structures are written as SMILES.

`CCN1CCN(Cc2ccc(Nc3ncc(F)c(-c4cc(F)c5nc(C)n(C(C)C)c5c4)n3)nc2)CC1` [abemaciclib]: the IC50 in assay [1] was 5.71 µM. Moreover, the “cells in S-phase” value in assay [2] is listed as less than 1%. Besides, the “tumors with tumor regression (>25% reduction in tumor volume)” value in assay [3] (abemaciclib monotherapy, 163 of 183 tumors) is on record as 89%. The “regressing tumors that had resumed growth (acquired resistance)” value in assay [3] (by day 35 of abemaciclib treatment, 142 of 163) worked out at 87%.
Turning to `CC(=O)c1c(C)c2cnc(Nc3ccc(N4CCNCC4)cn3)nc2n(C2CCCC2)c1=O` [palbociclib, reference compound], the “sensitivity of CCNE1-amplified lines” value in assay [4] is “not sensitive”. The IC50 is 0.026 µM in assay [5] and greater than 10 µM in assay [1]. Moreover, the “sensitivity of MKN1” value in assay [6] was “insensitive”.
For `CN(C)C(=O)c1cc2cnc(Nc3ccc(N4CCNCC4)cn3)nc2n1C1CCCC1` [ribociclib, reference compound], the tumor growth result in assay [7] is listed as “slowed tumor growth modestly”.
